The target in this test is T1, human CCR10 (Homo sapiens, UniProt P46092).
T1 construct: expressed in transfected cells; host or cells: KJMGER8 cells (Namalwa cell-derived line), beta-estradiol-induced; hCCR10G16 cells
T1 sequence (P46092 1-362): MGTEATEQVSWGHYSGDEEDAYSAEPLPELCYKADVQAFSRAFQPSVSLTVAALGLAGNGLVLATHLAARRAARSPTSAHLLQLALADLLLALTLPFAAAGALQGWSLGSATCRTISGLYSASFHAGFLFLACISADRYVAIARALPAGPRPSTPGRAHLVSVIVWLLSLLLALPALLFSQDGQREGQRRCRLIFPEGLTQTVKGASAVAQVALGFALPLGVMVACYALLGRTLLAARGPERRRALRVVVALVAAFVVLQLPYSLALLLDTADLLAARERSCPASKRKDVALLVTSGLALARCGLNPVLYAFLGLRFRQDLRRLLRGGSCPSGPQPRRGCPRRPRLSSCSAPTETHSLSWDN
Briefly: CCR10 antagonistic effect: calcium assay of human CCR10 (CTACK-induced increase of intracellular calcium in hCCR10G16 cells). The settings on record: at a concentration of not more than 1000 nmol/L; human CCR10-expressing hCCR10G16 cells, 300 nmol/L CTACK added; read-out: inhibition of increase in the calcium ion concentration. Format: cell-based. The protocol: [Experimental Example 1] CCR10 Antagonistic Effect
(1) Preparation of Human CCR10-Inducible Expression Plasmid
A CCR10-inducible expression plasmid was prepared according to a known method [Analytical Biochemistry, 2006, vol. 400, page 163]. A DNA encoding human CCR10 was obtained by PCR. Using human chromosome DNA (100 ng; manufactured by Clontech) as a template, synthetic DNA having the sequences depicted in SEQ ID NOs: 1 and 2 as a human CCR10 cDNA specific primer, and Pyrobest DNA Polymerase (manufactured by TAKARA SHUZO CO. LTD.) as an enzyme, a DNA encoding human CCR10 was obtained by PCR. As a buffer for PCR, the buffer attached to the enzyme to be used, which was diluted 10-fold with deionized water, was used. Using Thermal Cycler DNA Engine (manufactured by MJ Research), PCR was performed by 35 cycles of reactions composed of an incubation at 94° C. for 30 sec, at an anneal temperature of 58° C. for 30 sec, and at 72° C. for 1 min after treating at 90° C. for 2 min.
The amplified PCR fragment was cleaved with HindIII and NotI, then a human CCR10 DNA fragment was recovered by the agarose gel electrophoresis method. The fragment was incorporated between the corresponding restriction enzyme sites (HindIII-NotI) of an inducible expression vector to construct a human CCR10-inducible expression plasmid.
Using a primer specific to the sequence of plasmid (synthetic DNA having the sequences shown in SEQ ID NOs: 3 and 4), the sequence of human CCR10 DNA region was determined. For the determination of the base sequence, DNA Sequencer 377 (manufactured by Perkin Elmer. Co.) and a reaction kit (ABI Prism (registered trade mark) BigDye (registered trade mark) Terminator Cycle Sequencing Ready Reaction kit: manufactured by Applied Biosystems) were used. The sequence of human CCR10 DNA was identical with the sequence (NM 016602) registered in GenBank.
(2) Preparation of Human CCR10 Expressing Cell for Calcium Assay
Cells for detecting signals from human CCR10 in calcium assay were prepared. According to a known method [Analytical.Biochemistry (Analy Biochem), 2006, vol. 400, page 163], human CCR10-inducible expressing cells whose host cell is KJMGER8 cell (Namalwa cell-derived cell line) were prepared. Human CCR10-inducible expression plasmid produced above and Gα16 expression plasmid were co-transfected into the KJMGER8 cells by the electroporation method [Cytotechnology, 1990, vol. 3, page 133], whereby the signals from human CCR10 could be detected by calcium assay (hereinafter to be referred to as hCCR10G16 cell). A Ga16 expression plasmid was produced by incorporating human Ga16 DNA into expression vector pAMoh (WO 03/087366). Expression of human CCR10 was induced by cultivating hCCR10G16 cells in the presence of 10 nmol/L β-estradiol (manufactured by Sigma Ltd.) for 24 hr.
(3) Calcium Assay of Human CCR10
Cells expressing human CCR10 induced by the above-mentioned method were suspended in RPMI1640 medium (manufactured by Invitrogen), and adjusted to a cell density of 2×10^6 cells/mL. The cells were blended with an equivalent volume of a loading buffer prepared according to the attached protocol of Fluo-3 calcium assay kit (manufactured by Molecular Devices Corporation), and incubated at 37° C. for several dozen minutes. This mixture was dispensed to a 384 well clear-bottom plate (manufactured by Corning Incorporated) at 40 μL/well. To this plate was added a solution of the test compound in dimethyl sulfoxide (DMSO), which was diluted 37-fold with RPMI1640 medium, at 5 μL/well, and the mixture was incubated at 37° C. for 30 min. 300 nmol/L human recombinant CTACK (manufactured by R&D Systems, Inc.) diluted with RPMI1640 medium containing 1 w/v % bovine serum albumin (manufactured by Sigma Ltd.) was added at 5 μL/well and, variation of intracellular calcium ion concentration for about 5 min after the addition was measured by a screening apparatus (FDSS; manufactured by Hamamatsu Photonics K.K.). […]

Turning to `Cc1cccc(Nc2c(C(=O)N3CCC(c4ccc(F)cc4)CC3)cnc(S(N)(=O)=O)c2Cl)c1` [Compound 26, 3-chloro-5-[4-(4-fluorophenyl)piperidine-1-carbonyl]-4-(m-tolylamino)pyridine-2-sulfonamide], the inhibition at up to 1 µM was at least 50%. Take `NS(=O)(=O)c1ncc(C(=O)N2CCC(c3ccc(F)cc3)CC2)c(Nc2ccc(F)cc2F)c1Cl` [Compound 27, 3-chloro-4-(2,4-difluorophenylamino)-5-[4-(4-fluorophenyl)piperidine-1-carbonyl]pyridine-2-sulfonamide]: the inhibition at up to 1 µM was at least 50%.

As for `NS(=O)(=O)c1ncc(C(=O)N2CCC(c3ccc(F)cc3)CC2)c(Nc2ccc(Cl)cc2F)c1Cl` [Compound 28, 3-chloro-4-(4-chloro-2-fluorophenylamino)-5-[4-(4-fluorophenyl)piperidine-1-carbonyl]pyridine-2-sulfonamide], the inhibition at up to 1 µM is at least 50%. With `COc1ccc(Nc2c(C(=O)N3CCC(c4ccc(F)cc4)CC3)cnc(S(N)(=O)=O)c2Cl)cc1` [Compound 29, 3-chloro-5-[4-(4-fluorophenyl)piperidine-1-carbonyl]-4-(4-methoxyphenylamino)pyridine-2-sulfonamide] the figure was at least 50%. As to `COc1ccc(Nc2c(C(=O)N3CCC(c4ccc(F)cc4)CC3)cnc(S(N)(=O)=O)c2Cl)c(F)c1` [Compound 30, 3-chloro-4-(2-fluoro-4-methoxyphenylamino)-5-[4-(4-fluorophenyl)piperidine-1-carbonyl]pyridine-2-sulfonamide], the inhibition at up to 1 µM was at least 50%. Then `Cc1cc(Nc2c(C(=O)N3CCC(c4ccc(F)cc4)CC3)cnc(S(N)(=O)=O)c2Cl)ccc1F` [Compound 31, 3-chloro-4-(4-fluoro-3-methylphenylamino)-5-[4-(4-fluorophenyl)piperidine-1-carbonyl]pyridine-2-sulfonamide], with at least 50%; and `COc1ccc(Nc2c(C(=O)N3CCC(c4ccc(F)cc4)CC3)cnc(S(N)(=O)=O)c2Cl)cc1F` [Compound 32, 3-chloro-4-(3-fluoro-4-methoxyphenylamino)-5-[4-(4-fluorophenyl)piperidine-1-carbonyl]pyridine-2-sulfonamide], with at least 50%. With `Cc1ccccc1Nc1c(C(=O)N2CCC(c3ccc(F)cc3)CC2)cnc(S(N)(=O)=O)c1Cl` [Compound 33, 3-chloro-5-[4-(4-fluorophenyl)piperidine-1-carbonyl]-4-(o-tolylamino)pyridine-2-sulfonamide], the inhibition at up to 1 µM is at least 50%. Then `NS(=O)(=O)c1ncc(C(=O)N2CCC(c3ccc(F)cc3)CC2)c(Nc2cc(F)c(F)cc2F)c1Cl` [Compound 34, 3-chloro-5-[4-(4-fluorophenyl)piperidine-1-carbonyl]-4-(2,4,5-trifluorophenylamino)pyridine-2-sulfonamide], with at least 50%; and `CNC(=O)C1COCCN1S(=O)(=O)c1ncc(C(=O)N2CCC(c3ccc(F)cc3)CC2)c(Nc2ccc(F)cc2C)c1Cl` (centres unmarked) [Compound 35, 4-{3-chloro-4-(4-fluoro-2-methylphenylamino)-5-[4-(4-fluorophenyl)piperidine-1-carbonyl]pyridin-2-ylsulfonyl}-N-methylmorpholine-3-carboxamide], with at least 50%. With `COc1ccc(NS(=O)(=O)c2ncc(C(=O)N3CCC(c4ccc(F)cc4)CC3)c(Nc3ccc(F)cc3C)c2Cl)cc1` [Compound 38, 3-chloro-4-(4-fluoro-2-methylphenylamino)-5-[4-(4-fluorophenyl)piperidine-1-carbonyl]-N-(4-methoxyphenyl)pyridine-2-sulfonamide] the figure was at least 50%; with `Cc1cc(F)ccc1Nc1c(C(=O)N2CCC(c3ccc(F)cc3)CC2)cnc(S(=O)(=O)Nc2ccn(C)n2)c1Cl` [Compound 39, 3-chloro-4-(4-fluoro-2-methylphenylamino)-5-[4-(4-fluorophenyl)piperidine-1-carbonyl]-N-(1-methyl-1H-pyrazol-3-yl)pyridine-2-sulfonamide], at least 50%. `Cc1cc(NS(=O)(=O)c2ncc(C(=O)N3CCC(c4ccc(F)cc4)CC3)c(Nc3ccc(F)cc3C)c2Cl)no1` [Compound 40, 3-chloro-4-(4-fluoro-2-methylphenylamino)-5-[4-(4-fluorophenyl)piperidine-1-carbonyl]-N-(5-methylisoxazol-3-yl)pyridine-2-sulfonamide]: the inhibition at up to 1 µM is at least 50%. With `Cc1cc(NS(=O)(=O)c2ncc(C(=O)N3CCC(c4ccc(F)cc4)CC3)c(Nc3ccc(F)cc3C)c2Cl)on1` [Compound 41, 3-chloro-4-(4-fluoro-2-methylphenylamino)-5-[4-(4-fluorophenyl)piperidine-1-carbonyl]-N-(3-methylisoxazol-5-yl)pyridine-2-sulfonamide] the figure was at least 50%; with `Cc1cc(F)ccc1Nc1c(C(=O)N2CCC(c3ccc(F)cc3)CC2)cnc(S(=O)(=O)Nc2cc(C(C)(C)C)on2)c1Cl` [Compound 42, N-(5-tert-butylisoxazol-3-yl)-3-chloro-4-(4-fluoro-2-methylphenylamino)-5-[4-(4-fluorophenyl)piperidine-1-carbonyl]pyridine-2-sulfonamide], at least 50%. With `CCNC(=O)NS(=O)(=O)c1ncc(C(=O)N2CCC(c3ccc(F)cc3)CC2)c(Nc2ccc(F)cc2C)c1Cl` [Compound 43, 3-chloro-N-(ethylcarbamoyl)-4-(4-fluoro-2-methylphenylamino)-5-[4-(4-fluorophenyl)piperidine-1-carbonyl]pyridine-2-sulfonamide] the figure was at least 50%. Turning to `NS(=O)(=O)c1ncc(C(=O)N2CCC(c3ccc(F)cc3)CC2)c(NCc2ccccc2)c1Cl` [Compound 44, 4-(benzylamino)-3-chloro-5-[4-(4-fluorophenyl)piperidine-1-carbonyl]pyridine-2-sulfonamide], the inhibition at up to 1 µM is at least 50%. In the case of `NS(=O)(=O)c1ncc(C(=O)N2CCC(c3ccc(F)cc3)CC2)c(NC2CCCCC2)c1Cl` [Compound 45, 3-chloro-4-(cyclohexylamino)-5-[4-(4-fluorophenyl)piperidine-1-carbonyl]pyridine-2-sulfonamide], the inhibition at up to 1 µM was at least 50%. Turning to `Cc1cc(Cl)ccc1Nc1cc(S(N)(=O)=O)ncc1C(=O)N1CCC2(CC1)OCc1ccccc12` [Compound 46, 4-(4-chloro-2-methylphenylamino)-5-(3H-spiro[isobenzofuran-1,4′-piperidine]-1′-ylcarbonyl]pyridine-2-sulfonamide], the inhibition at up to 1 µM was at least 50%. With `Cc1cc(F)ccc1Nc1cc(S(N)(=O)=O)ncc1C(=O)N1CCC(c2ccccc2)CC1` [Compound 48, 4-(4-fluoro-2-methylphenylamino)-5-(4-phenylpiperidine-1-carbonyl)pyridine-2-sulfonamide] the figure was at least 50%.
